{
  "source": "patent US11542262B2",
  "about": "“Phosphatidylinositol 3-kinase inhibitors” (NANJING ZHENGXIANG PHARMACEUTICALS CO., LTD., priority 2019, dated 2023)",
  "key": {"PI3Kα": {"biological_target": "PI3Kα (Homo sapiens, UniProt P42336)", "sequence (P42336 whole entry, species assumed, canonical isoform)": "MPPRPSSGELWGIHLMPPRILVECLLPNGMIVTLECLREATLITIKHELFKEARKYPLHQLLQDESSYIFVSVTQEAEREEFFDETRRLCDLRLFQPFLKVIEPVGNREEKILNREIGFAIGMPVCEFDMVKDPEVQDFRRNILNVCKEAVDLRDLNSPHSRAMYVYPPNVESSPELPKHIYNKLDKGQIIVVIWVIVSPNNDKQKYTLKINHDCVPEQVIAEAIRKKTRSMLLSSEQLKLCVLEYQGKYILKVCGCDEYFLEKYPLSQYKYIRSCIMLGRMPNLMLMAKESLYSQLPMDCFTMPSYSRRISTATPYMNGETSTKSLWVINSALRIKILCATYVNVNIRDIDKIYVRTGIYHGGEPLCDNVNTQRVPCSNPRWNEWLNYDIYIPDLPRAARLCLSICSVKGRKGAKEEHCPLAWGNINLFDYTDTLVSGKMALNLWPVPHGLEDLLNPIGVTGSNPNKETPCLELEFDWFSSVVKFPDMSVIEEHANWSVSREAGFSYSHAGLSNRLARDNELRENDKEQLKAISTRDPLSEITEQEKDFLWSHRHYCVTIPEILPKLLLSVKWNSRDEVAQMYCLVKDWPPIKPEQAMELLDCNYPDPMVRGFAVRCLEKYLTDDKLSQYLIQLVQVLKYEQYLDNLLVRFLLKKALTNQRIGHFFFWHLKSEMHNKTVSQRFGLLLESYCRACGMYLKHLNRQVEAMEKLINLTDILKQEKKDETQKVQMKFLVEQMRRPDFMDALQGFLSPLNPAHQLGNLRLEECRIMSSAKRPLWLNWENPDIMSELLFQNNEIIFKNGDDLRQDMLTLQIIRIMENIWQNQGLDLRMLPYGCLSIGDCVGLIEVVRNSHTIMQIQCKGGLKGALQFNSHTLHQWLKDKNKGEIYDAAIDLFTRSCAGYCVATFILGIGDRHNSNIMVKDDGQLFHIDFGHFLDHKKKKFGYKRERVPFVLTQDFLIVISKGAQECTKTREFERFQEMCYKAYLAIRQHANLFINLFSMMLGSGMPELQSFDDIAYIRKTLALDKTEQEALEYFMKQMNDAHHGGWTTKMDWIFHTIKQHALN", "sequence (P27986 whole entry partner, species assumed, canonical isoform)": "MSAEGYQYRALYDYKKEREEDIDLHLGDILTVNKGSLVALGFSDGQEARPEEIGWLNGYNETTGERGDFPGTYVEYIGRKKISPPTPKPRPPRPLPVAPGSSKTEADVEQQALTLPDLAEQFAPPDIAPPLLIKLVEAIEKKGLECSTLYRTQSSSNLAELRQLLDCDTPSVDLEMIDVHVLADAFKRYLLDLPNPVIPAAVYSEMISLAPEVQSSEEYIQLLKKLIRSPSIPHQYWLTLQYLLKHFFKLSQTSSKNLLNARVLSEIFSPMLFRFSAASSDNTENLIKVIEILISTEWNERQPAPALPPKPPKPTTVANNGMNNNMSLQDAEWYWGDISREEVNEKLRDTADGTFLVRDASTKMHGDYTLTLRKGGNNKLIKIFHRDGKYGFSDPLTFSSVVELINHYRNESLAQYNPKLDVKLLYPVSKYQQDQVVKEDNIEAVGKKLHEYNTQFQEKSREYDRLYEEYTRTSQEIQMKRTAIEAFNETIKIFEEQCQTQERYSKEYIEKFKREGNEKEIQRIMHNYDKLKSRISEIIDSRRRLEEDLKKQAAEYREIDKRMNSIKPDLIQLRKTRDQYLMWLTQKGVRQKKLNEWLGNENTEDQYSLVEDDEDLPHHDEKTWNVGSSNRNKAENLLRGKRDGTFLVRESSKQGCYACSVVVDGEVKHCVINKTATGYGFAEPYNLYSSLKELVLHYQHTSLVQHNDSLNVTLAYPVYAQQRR", "assay": "ADP-Glo luminescent assay, enzymatic activity of PI3K alpha", "type": "biochemical", "details": "ATP 25 μM; read-out: PI3K alpha (nM) inhibitory activity (IC50)", "method": "(§1) Enzymatic activity of PI3K isoforms: Enzymatic activity of the class I PI3K isoforms in the presence of the compounds of Table 1 was measured using ADP-Glo luminescent assay against PI3Kα, PI3Kβ, PI3Kδ and PI3Kγ with ATP concentration at 25 μM. IPI-549 was used as the reference compound. The compounds would be tested from 1 or 10 μM, 3-fold dilution for 10 doses, in duplicate.\n(§2) Compound preparation: Dilute a compound to 100× of the final desired highest inhibitor concentration in reaction by 100% DMSO. Transfer 100 μl of this compound dilution to a well in a 96-well plate and serially dilute it with DMSO for a total of 10 concentrations.\n(§3) Kinase reaction: Prepare a solution of PI3K in 1× kinase buffer at 2-fold the final concentration of each reagent in the assay. Control wells contain 1× kinase buffer without enzyme. Prepare substrate solution of PIP2 substrate and ATP in 1× kinase reaction buffer at 2-fold of the final concentration. Add concentration substrate solution to each well to the final concentration. Cover the assay plate, shake to mix, and incubate at room temperature for 1 hour. Add 5 μl of ADP-Glo reagent to each well to stop the reaction. Mix briefly with a quick spin, shake slowly on the shaker for 120 min. Add 10 ul Kinase Detection Reagent to each well, shake 1 min, equilibrate for 30 min before reading on a luminescence plate reader.\n(§4) Data Analysis: Convert RLU values to percent inhibition values as Percent inhibition=(max−sample RLU)/(max−min)*100. “min”—no enzyme control; “max”—DMSO control. Fit the data in XLFit excel add-in version 5.4.0.8 to obtain IC50 values. Y=Bottom+(Top−Bottom)/(1+(IC50/X)^HillSlope)."}, "Pharmacokinetics in dogs": {"assay": "Pharmacokinetics in dogs", "type": "in vivo", "details": "IV bolus at 1 mg/kg and PO at 5 mg/kg; for bioavailability / clearance / half-life: male, dog, plasma; for bioavailability: beagle, oral, 5 mg/kg, read-out: F (%) oral bioavailability", "method": "Dosing solutions were prepared at 1 mg/mL in 5% DMSO/40% PEG400/55% water. A dosing solution was administered to male beagle dogs (Approximately 9-14 kg, 3 dogs each group) via intravenous (IV) bolus at 1 mg/kg and by oral gavage (PO) at 5 mg/kg. The dosing volume was 1 mL/kg for IV administration and 5 mL/kg for oral gavage. Blood samples (˜0.3 mL each time point) were collected into tubes containing potassium ethylenediaminetetraacetic acid (K2EDTA) as the anticoagulant at 0.033, 0.083, 0.25, 0.5, 1, 2, 4, 8 and 24 hours post dose for IV administration and 0.083, 0.25, 0.5, 1, 2, 4, 8 and 24 hours post dose for PO administration. The blood samples were then centrifuged for 5 minutes in a centrifuge refrigerated at 4° C. The resultant plasma samples were analyzed using LC/MS/MS to determine concentrations of a test compound. Non-compartmental model with WinNonlin (Phoenix™, version 6.1) software was used to calculate pharmacokinetic (PK) parameters."}, "PI3Kδ": {"biological_target": "PI3Kδ (Homo sapiens, UniProt O00329)", "sequence (O00329 whole entry, species assumed)": "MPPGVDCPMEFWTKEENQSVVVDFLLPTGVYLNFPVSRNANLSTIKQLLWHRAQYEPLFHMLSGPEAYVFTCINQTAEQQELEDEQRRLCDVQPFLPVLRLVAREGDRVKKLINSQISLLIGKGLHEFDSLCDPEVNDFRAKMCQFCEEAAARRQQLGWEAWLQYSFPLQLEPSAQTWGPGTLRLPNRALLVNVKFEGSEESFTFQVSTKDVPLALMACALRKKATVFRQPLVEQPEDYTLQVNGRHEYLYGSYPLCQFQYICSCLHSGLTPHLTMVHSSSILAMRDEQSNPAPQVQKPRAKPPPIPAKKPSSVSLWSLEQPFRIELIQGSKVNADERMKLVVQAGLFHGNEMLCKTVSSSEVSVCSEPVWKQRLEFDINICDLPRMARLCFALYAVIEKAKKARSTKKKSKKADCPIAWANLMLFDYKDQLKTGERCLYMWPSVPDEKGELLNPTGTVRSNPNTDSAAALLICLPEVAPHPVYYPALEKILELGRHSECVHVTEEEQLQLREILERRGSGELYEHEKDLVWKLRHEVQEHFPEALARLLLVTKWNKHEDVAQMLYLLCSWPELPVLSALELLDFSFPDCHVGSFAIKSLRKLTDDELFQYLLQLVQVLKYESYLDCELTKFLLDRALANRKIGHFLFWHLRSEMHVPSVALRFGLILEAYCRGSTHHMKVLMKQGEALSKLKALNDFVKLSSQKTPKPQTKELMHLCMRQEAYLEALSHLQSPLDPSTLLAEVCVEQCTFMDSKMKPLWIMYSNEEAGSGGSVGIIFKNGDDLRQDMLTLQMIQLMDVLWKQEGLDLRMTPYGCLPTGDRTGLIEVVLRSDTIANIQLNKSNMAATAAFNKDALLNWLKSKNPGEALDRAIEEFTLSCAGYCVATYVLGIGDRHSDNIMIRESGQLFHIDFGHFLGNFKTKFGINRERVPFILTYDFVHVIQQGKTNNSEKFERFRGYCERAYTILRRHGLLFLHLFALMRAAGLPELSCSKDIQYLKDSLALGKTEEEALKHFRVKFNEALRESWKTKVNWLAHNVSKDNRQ", "sequence (P27986 whole entry partner, species assumed)": "as the sequence (P27986 whole entry partner, species assumed, canonical isoform) above", "assay": "ADP-Glo luminescent assay, enzymatic activity of PI3K delta", "type": "biochemical", "details": "ATP 25 μM; read-out: PI3K delta (nM) inhibitory activity (IC50)", "method": "as §1, with “IPI-549 was used as the reference compound.” left out\nas §2, §3, §4"}, "PI3Kβ": {"biological_target": "PI3Kβ (Homo sapiens, UniProt P42338)", "sequence (P42338 whole entry, species assumed)": "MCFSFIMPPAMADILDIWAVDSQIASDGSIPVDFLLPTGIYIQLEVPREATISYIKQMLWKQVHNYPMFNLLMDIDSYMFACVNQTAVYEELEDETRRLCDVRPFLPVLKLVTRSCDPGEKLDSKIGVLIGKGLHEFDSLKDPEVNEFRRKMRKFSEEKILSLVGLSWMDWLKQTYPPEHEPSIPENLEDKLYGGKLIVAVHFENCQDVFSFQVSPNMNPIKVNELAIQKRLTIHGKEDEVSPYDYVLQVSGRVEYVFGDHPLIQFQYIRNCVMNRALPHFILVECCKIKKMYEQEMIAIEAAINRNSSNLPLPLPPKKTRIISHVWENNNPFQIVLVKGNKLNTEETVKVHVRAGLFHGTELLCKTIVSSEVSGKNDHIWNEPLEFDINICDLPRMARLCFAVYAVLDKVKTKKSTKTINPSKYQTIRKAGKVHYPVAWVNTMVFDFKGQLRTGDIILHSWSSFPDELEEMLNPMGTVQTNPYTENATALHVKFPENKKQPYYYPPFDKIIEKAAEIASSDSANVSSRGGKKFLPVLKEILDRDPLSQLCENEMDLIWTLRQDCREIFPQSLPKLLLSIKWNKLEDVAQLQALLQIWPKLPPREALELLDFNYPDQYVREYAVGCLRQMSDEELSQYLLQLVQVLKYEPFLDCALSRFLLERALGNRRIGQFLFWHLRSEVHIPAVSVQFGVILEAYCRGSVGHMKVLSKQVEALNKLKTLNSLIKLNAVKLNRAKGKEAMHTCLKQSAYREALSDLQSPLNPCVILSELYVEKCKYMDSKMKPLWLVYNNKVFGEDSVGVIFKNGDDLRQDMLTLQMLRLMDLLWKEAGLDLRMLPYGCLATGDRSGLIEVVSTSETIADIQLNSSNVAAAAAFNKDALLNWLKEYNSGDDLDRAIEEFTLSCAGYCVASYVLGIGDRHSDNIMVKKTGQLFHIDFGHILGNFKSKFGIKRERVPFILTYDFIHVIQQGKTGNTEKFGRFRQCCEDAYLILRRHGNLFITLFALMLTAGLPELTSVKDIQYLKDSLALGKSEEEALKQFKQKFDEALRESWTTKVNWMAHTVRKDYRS", "sequence (P27986 whole entry partner, species assumed)": "as the sequence (P27986 whole entry partner, species assumed, canonical isoform) above", "assay": "ADP-Glo luminescent assay, enzymatic activity of PI3K beta", "type": "biochemical", "details": "ATP 25 μM; read-out: PI3K beta (nM) inhibitory activity (IC50)", "method": "as §1, §2, §3, §4"}, "[1]": {"assay": "Kinetic solubility test in PBS pH7.4", "type": "physicochemical", "details": "for solubility at 2 h: aqueous buffer, kinetic from dmso stock, PBS pH 7.4, 25° C.", "method": "15 μL of stock solution (10 mM) was placed in order into their proper 96-well rack. 485 μL of PBS pH7.4 was added into each vial of the cap-less Solubility Sample plate. The assay was performed in singlet. Add one stir stick to each vial and seal using a molded PTFE/Silicone plug. […] After completion of the 2 hours, the samples from the Solubility Sample plate were transferred into the filter plate. all the samples were filtered using the Vacuum Manifold. Aliquot of 5 μL was taken from the filtrate followed by addition of 495 μL of a mixture of H2O and acetonitrile containing internal standard (1:1). A certain proportion of ultrapure water was used to dilute the diluent according to the peak shape. The dilution factor was changed according to the solubility values and the LC-MS signal response.\nPreparation of 3 μM standards (STD): From the 10 mM DMSO STD plate, 6 μL was transferred into the remaining empty plate, and then 194 μL of DMSO was added to that plate to have a STD concentration of 300 μM. From the 300 μM DMSO STD plate, 5 μL was transferred into the remaining empty plate, and then 495 μL of a mixture of H2O and acetonitrile containing internal standard (1:1) was added to that plate to have a final STD concentration of 3 μM. A certain proportion of ultrapure water was used to dilute the diluent according to the peak shape. The concentrations of the standard samples were changed according to the LC-MS signal response.\nProcedure for sample analysis: The plate was placed into the well plate autosampler. The samples were evaluated by LC-MS/MS analysis.\nData analysis: All calculations were carried out using Microsoft Excel.\nThe filtrate was analyzed and quantified against a standard of known concentration using LC coupled with mass spectral peak identification and quantitation. Solubility values of the test compound and control compound were calculated as follows:\n[formula] • Any value of the compounds that was not within the specified limits was rejected and the experiment was repeated."}},
  "data": [
    {"smiles": "CC(=O)Nc1nc(C)c(-c2cc3c(c(NS(C)(=O)=O)n2)C(=O)N([C@@H](C)C2CC2)C3)s1", "note": "[Compound 20, (S)-N-(5-(2-(1-cyclopropylethyl)-4-(methylsulfonamido)-3-oxo-2,3-dihydro-1H-pyrrolo[3,4-c]pyridin-6-yl)-4-methylthiazol-2-yl)acetamide]", "values": [
      {"measurement": "IC50", "setting": "PI3Kα", "value": 3890, "unit": "nM"},
      {"measurement": "F (%) oral bioavailability", "setting": "Pharmacokinetics in dogs; beagle dogs", "value": 108, "unit": "%"},
      {"measurement": "Vssobs", "setting": "Pharmacokinetics in dogs; beagle dogs", "value": 2.1, "unit": "L/kg"},
      {"measurement": "bioavailability", "setting": "Pharmacokinetics in dogs", "value": 107, "unit": "%"},
      {"measurement": "clearance", "setting": "Pharmacokinetics in dogs; beagle dogs", "value": 6.1, "unit": "mL/min/kg"},
      {"measurement": "half-life", "setting": "Pharmacokinetics in dogs; beagle dogs", "value": 7.2, "unit": "h"},
      {"measurement": "IC50", "setting": "PI3Kδ", "value": 1170, "unit": "nM"},
      {"measurement": "IC50", "setting": "PI3Kβ", "value": "> 10000", "unit": "nM"},
      {"measurement": "solubility at 2 h", "setting": "[1]", "value": 240, "unit": "µM"},
      {"measurement": "fold improvement over AZ-17 in kinetic solubility test", "setting": "[1]; physiologic pH", "value": "> 200", "unit": "fold"}
    ]},
    {"smiles": "CC(=O)Nc1nc(C)c(-c2cc3c(c(N4CCOCC4)n2)C(=O)N([C@@H](C)C2CC2)C3)s1", "note": "[Compound 34, (S)-N-(5-(2-(1-cyclopropylethyl)-4-morpholino-3-oxo-2,3-dihydro-M-pyrrolo[3,4-c]pyridin-6-yl)-4-methylthiazol-2-yl)acetamide]", "values": [
      {"measurement": "IC50", "setting": "PI3Kα", "value": 3330, "unit": "nM"},
      {"measurement": "Vssobs", "setting": "Pharmacokinetics in dogs; beagle dogs", "value": 2.7, "unit": "L/kg"},
      {"measurement": "bioavailability", "setting": "Pharmacokinetics in dogs", "value": "> 68", "unit": "%"},
      {"measurement": "clearance", "setting": "Pharmacokinetics in dogs; beagle dogs", "value": 4.5, "unit": "mL/min/kg"},
      {"measurement": "half-life", "setting": "Pharmacokinetics in dogs; beagle dogs", "value": 9.1, "unit": "h"},
      {"measurement": "IC50", "setting": "PI3Kδ", "value": "> 1000", "unit": "nM"},
      {"measurement": "IC50", "setting": "PI3Kβ", "value": "> 10000", "unit": "nM"},
      {"measurement": "solubility at 2 h", "setting": "[1]", "value": 9.6, "unit": "µM"}
    ]}
  ]
}
